Assay results: US20120028837A1, “RAPID SCREEN FOR REPRODUCTIVE TOXICANTS” (PRESIDENT AND FELLOWS OF HARVARD COLLEGE, priority 2010, published 2012)

How the values were obtained:
[1] = in vivo; conditions: C. elegans
Procedure: The internal concentration of free BPA was measured by tandem HPLC analysis (Axys, BC, Canada) following an extensive number of physiological buffer washes and lysis of worms cultured on BPA plates (Materials an Methods).

[2] = system: C. elegans germline; conditions: in vivo
From the text: Synapsis and recombination are tightly linked events during pachytene throughout various species, as it is only in the context of a fully assembled SC that crossover recombination can be completed. Indeed, in C. elegans, null mutants of SC components such as syp-1, syp-2, syp-3, syp-4 and him-3, increased levels of RAD-51 foci formation and delayed kinetics of foci turnover are observed during pachytene. Consequently, there is activation of the DNA damage checkpoint leading to increased germ cell apoptosis. Recombination is an essential and highly regulated process for the exchange of information that takes place during prophase I [18]. As nuclei exit mitosis and progress through meiosis, programmed meiotic DNA double strand breaks (DSBs) are formed and processed by several DNA repair proteins including RAD-51 [25, 48]. […] As unrepaired recombination intermediates can trigger a DNA-damage checkpoint during pachytene leading to increased germ cell apoptosis, the number of apoptotic nuclei following BPA exposure was measured by Syto-12 staining. […]
Quantification of Germ Cell Apoptosis. Apoptotic germline nuclei were scored in young adults between 20 and 24 hours post-L4 using SYTO-12 (Invitrogen) and were processed as described in [26]. […] Both GFP positive and negative worms (heterozygous and homozygous for cep-1 respectively) were analyzed following BPA exposure. […]

[3] = system: C. elegans germline; assay: ATL-1 and p-CHK1 immunostaining (DNA damage checkpoint); assay type: in vivo
From the text: ATL-1, the C. elegans homologue of mammalian ATM and Rad3-related protein (ATR), accumulates to sites of persistent DSBs during meiosis, and together with CLK-2, acts as a sensor of germ-cell DNA damage which leads to phosphorylation of the checkpoint kinase CHK1 and ultimately apoptosis. To further examine the progression of DSB repair, the levels of ATL-1 and phosphorylated CHK1 (p-CHK1) were monitored throughout the gonad following exposure to BPA.

[4] = system: xol-1::GFP, nx3 worms; assay: Lethality, chemical sensitivity of xol-1::GFP, nx3 cuticle mutant strain; assay type: in vivo, C. elegans; conditions: four days
Procedure: The sensitivity of the xol-1::GFP, nx3 strain compared to the xol-1::GFP strain was assayed by exposing 25 worms for four days (from eggs to adulthood) to a range of concentration of Bisphenol A: 100 μM, 500 μM and 1 mM. The nx3 cuticle mutation was expected to confer increased sensitivity to BPA.

[5] = system: C. elegans diakinesis oocytes; assay: Diakinesis oocyte analysis (chromosome condensation, SYP-1, AIR-2, pH3); conditions: for -1 oocytes showing lack of condensation: BPA
From the text: Proper processing of recombination events is coupled with the formation of mature bivalents during the diakinesis stage such that in mutants where recombination intermediate processing is impaired, bivalent maturation is delayed.
Associated with the changes in chromatin morphology, the SC is disassembled during late diakinesis in a tightly controlled fashion. Accordingly, SC components, such as SYP-1, are detectable on the short arms of the bivalent in the −3 oocyte but are essentially absent from the bivalents of −2 and −1 oocytes. Thus, whether a delay in chromosome remodeling could correlate with an incomplete disassembly of SC components in late diakinesis was examined.
Accurate chromosome segregation at meiosis I is characterized by the carefully orchestrated loss of cohesion between homologs coupled with retention of cohesion between sister chromatids. This regulated process involves the targeting of the Aurora-B kinase AIR-2, a member of the chromosomal passenger complex, to the short arm of the bivalents in the −1 oocyte which has been proposed to lead to the removal the meiosis-specific cohesin REC-8 from the short arms of the bivalent. To examine whether these key steps in late meiotic prophase I might be impaired in BPA treated gonads, the localization of AIR-2 in the −1 oocytes was examined. […] Phospho histone H3 (pH3) is a canonical substrate for the activity of AIR-2 [59] and accordingly, although it accumulates in the −3 to −1 oocytes, it is only detected on the short arms of the bivalent in the −1 oocyte in the presence of AIR-2 [56, 57].
BPA bears endocrine disrupting activity in many developmental contexts including gonadal, brain and mammary gland development. BPA has affinity for multiple members of the estrogen receptors family, in particular BPA binds to the human estrogen receptor alpha (ERα) and ERβ as well as estrogen-related receptor gamma (ERR-γ) and in C. elegans with nuclear hormone receptor NHR-14 which also binds estrogen. […] Two hallmarks of exposure to BPA were examined, the decrease in the size of the proliferative zone and the condensation defects observed at diakinesis, as they are both highly penetrant and consistent phenotypes. […] Similarly to the experiments described above, the size of the mitotic zone was quantified as well as condensation defects at diakinesis.
Antibody Staining. DAN staining, immunostaining and analysis of stained meiotic nuclei were performed as in [25] except for ATL-1 and AIR-2 antibodies were dissected gonads were subjected to a 1% fixation method as described in [27]. Antibodies were used at the following dilutions: rabbit α-SYP-1 (1:100), mouse α-RAD-51 (1:100), rabbit α-HTP-3 (1:500), guinea pig α-HIM-8 (1:100), rabbit α-ATL-1 (1:50), rabbit α-AIR-2 (1:100) and rabbit α-pCHK-1 (1:100). The secondary antibodies used were: Cy3 anti-rabbit, FITC anti-guinea-pig and FITC anti-mouse (Jackson Immunochemicals), each at 1:100, Stacks of 0.2 μm slices were captured using a Leica microscope, coupled to the DeltaVision fluorescence microscope system (Applied Precision). The images were projections approximately halfway through 3D data stacks of whole nuclei, except for diakinesis images which encompass entire nuclei.

**Q.** For CC(C)(c1ccc(O)cc1)c1ccc(O)cc1 [BPA, Bisphenol A], which concentration at 4 days, 1 mM [1] is on record?
**A.** 2000 ng/g

**Q.** What about the “apoptotic levels in a cep-1 mutant background” value [2] of the same compound?
**A.** reduced to normal levels

**Q.** What about the “number of apoptotic nuclei compared to vehicle” value [2] of the same compound?
**A.** two to three-fold increase

**Q.** And the “elevated RAD-51, ATL-1 or p-CHK1 staining in the mitotic germline nuclei” value ([3]; BPA exposure)?
**A.** not observed

**Q.** And the “levels of ATL-1 signal on pachytene nuclei” value ([3]; BPA treated vs control)?
**A.** significant increase

**Q.** What about the “levels of p-CHK1 signal on pachytene nuclei” value ([3]; BPA treated vs control) of the same compound?
**A.** significant increase

**Q.** What about the lethality ([4]; 100 μM) of the same compound?
**A.** 0%

**Q.** What about the lethality ([4]; 500 μM) of the same compound?
**A.** 96%

**Q.** And the lethality ([4]; 1 Mm)?
**A.** 100%

**Q.** What about the “gonads with SYP-1 staining on short arm of bivalent in the -1 oocyte” value ([5]; BPA exposed gonads) of the same compound?
**A.** 10%

**Q.** What about the “-1 oocytes with pH3 staining localized to the bivalents” value ([5]; BPA treated) of the same compound?
**A.** 14%

**Q.** And the “gonads in which AIR-2 was not detected on the bivalents of -1 oocytes” value ([5]; BPA treated gonads)?
**A.** 100%

**Q.** What about the “gonads in which the -1 oocyte did not show normal chromosome condensation” value ([5]; BPA treated gonads) of the same compound?
**A.** 23%

**Q.** What about the “gonads with residual SYP-1 staining on short arm of bivalent in the -2 oocyte” value ([5]; BPA treated gonads) of the same compound?
**A.** 80%

**Q.** What about the “kinetics of pH3 nuclear accumulation in diakinesis oocytes” value ([5]; BPA treated oocytes) of the same compound?
**A.** delay in the kinetics of pH3 nuclear accumulation

**Q.** And the “-1 oocytes showing lack of condensation” value ([5]; one day post-L4)?
**A.** 17%

**Q.** And the “-1 oocytes showing lack of condensation” value ([5]; three days post-L4)?
**A.** 28%

**Q.** What about the “-1 oocytes showing lack of condensation” value ([5]; two days post-L4) of the same compound?
**A.** 24%

**Q.** And the “delay in bivalent maturation judged by nuclear morphology” value ([5]; all BPA gonads examined, from -1, -2 or -3 oocyte)?
**A.** some level of delay in bivalent maturation
